Data as given in US20230271950A1, “ANTIBACTERIAL PICOLINAMIDE COMPOUNDS” (University of Notre Dame Du Lac, priority 2020, published 2023).
Like-named read-outs stand apart in the source and are kept apart here.

Legend:
C. difficile = experiment: MIC by broth microdilution against C. difficile strains; type: cell-based, Clostridioides difficile; conditions: Clostridioides difficile; for MIC: read-out: MIC
MRSA (NRS70, NRS119) = experiment: MIC against MRSA strains; type: cell-based, Staphylococcus aureus
S. aureus ATCC29213 = experiment: MIC against MSSA; type: cell-based, Staphylococcus aureus; conditions: Staphylococcus aureus; S. aureus ATCC29213; Table 1; read-out: MIC
Bacteroides fragilis = experiment: MIC against gut bacterium Bacteroides fragilis; type: cell-based; conditions: Bacteroides fragilis strain HM-709
Bifidobacterium longum = experiment: MIC against gut bacterium Bifidobacterium longum; type: cell-based; conditions: Bifidobacterium longum strain HM-846
Corynebacterium spp. = experiment: MIC against gut bacterium Corynebacterium spp.; type: cell-based; conditions: Corynebacterium spp. strain HM-784; Table 1
Fusobacterium nucleatum = experiment: MIC against gut bacterium Fusobacterium nucleatum; type: cell-based; conditions: Fusobacterium nucleatum strain HM-992
Lactobacillus reuteri = experiment: MIC against gut bacterium Lactobacillus reuteri; type: cell-based
Lactobacillus gasseri = experiment: MIC against gut bacterium Lactobacillus gasseri; type: cell-based
Veillonella sp. HM-49 = experiment: MIC against gut bacterium Veillonella sp.; type: cell-based
Eubacterium sp. = experiment: MIC against gut bacterium Eubacterium sp.; type: cell-based; conditions: Eubacterium sp. strain HM-178

CN[C@H](CC(C)C)C(=O)N[C@H]1C(=O)N[C@@H](CC(N)=O)C(=O)N[C@H]2C(=O)N[C@H]3C(=O)N[C@H](C(=O)N[C@H](C(=O)O)c4cc(O)cc(O)c4-c4cc3ccc4O)[C@H](O)c3ccc(c(Cl)c3)Oc3cc2cc(c3O[C@@H]2O[C@H](CO)[C@@H](O)[C@H](O)[C@H]2O[C@H]2C[C@](C)(N)[C@H](O)[C@H](C)O2)Oc2ccc(cc2Cl)[C@H]1O [VAN, vancomycin, reference compound]
16 µg/mL: MIC (Bacteroides fragilis; Table 1, read-out: MIC) | MIC (Bacteroides fragilis; Table 7)
0.25 µg/mL: MIC (C. difficile; BAA1801, C. difficile BAA-1801, Table 7) | MIC (C. difficile; BAA1801, C. difficile BAA-1801, Table 9) | MIC (C. difficile; C. difficile HM-89, Table 9) | MIC (C. difficile; C. difficile NR49292, Table 7) | MIC (C. difficile; C. difficile NR49292, Table 9) | MIC (C. difficile; C. difficile NR49294, Table 7) | MIC (C. difficile; C. difficile NR49294, Table 9) | MIC (C. difficile; C. difficile NR49318, Table 7) | MIC (C. difficile; C. difficile NR49318, Table 9) | MIC (C. difficile; C. difficile NR-13431, Table 9) | MIC (C. difficile; C. difficile NR-32897, Table 9) | MIC (C. difficile; C. difficile NR-32904, Table 9) | MIC (C. difficile; C. difficile NR-49285, Table 9) | MIC (C. difficile; C. difficile NR-49321, Table 9) | MIC (C. difficile; C. difficile NR-49328, Table 9) | MIC (C. difficile; C. difficile NR-49329, Table 9) | MIC (Bifidobacterium longum; Table 1, read-out: MIC) | MIC (Bifidobacterium longum; Table 7) | MIC (Corynebacterium spp.) | MIC (Fusobacterium nucleatum; Table 1, read-out: MIC) | MIC (Fusobacterium nucleatum; Table 7)
2 µg/mL: MIC (C. difficile; BAA1803, C. difficile BAA-1803, Table 7) | MIC (C. difficile; BAA1803, C. difficile BAA-1803, Table 9) | MIC (C. difficile; BAA1870, C. difficile BAA-1870 (NAP1, ribotype 27), Table 1) | MIC (C. difficile; BAA1870, C. difficile BAA-1870, Table 7) | MIC (C. difficile; BAA1870, C. difficile BAA-1870, Table 9) | MIC (C. difficile; C. difficile 23828 (FR, fidaxomicin-resistant), Table 7) | MIC (C. difficile; C. difficile 23828, clinical isolate resistant to FDX, Table 1) | MIC (C. difficile; C. difficile 23828, Table 9) | MIC (C. difficile; C. difficile NR-13428, Table 9) | MIC (C. difficile; C. difficile NR-32889, Table 9) | MIC (C. difficile; C. difficile NR-32890, Table 9) | MIC (C. difficile; C. difficile NR-32895, Table 9) | MIC (C. difficile; C. difficile NR-32896, Table 9) | MIC90 (C. difficile; read-out: MIC90 (101 strains)) | MIC (MRSA (NRS70, NRS119); MRSA NRS70, Table 7) | MIC (MRSA (NRS70, NRS119); MRSA NRS119, Table 1) | MIC (MRSA (NRS70, NRS119); Staphylococcus aureus, MRSA NRS70, Table 1, read-out: MIC) | MIC (Eubacterium sp.; Table 1, read-out: MIC) | MIC (Eubacterium sp.; Table 7)
>32 µg/mL: MIC (Veillonella sp. HM-49; Veillonella sp. strain HM-49, Table 7)
> 32 mg/L: MIC (Lactobacillus reuteri; Limosilactobacillus reuteri, Lactobacillus reuter strain HM-102, Table 1, read-out: MIC)
> 32 µg/mL: MIC (Veillonella sp. HM-49; SP.HM49, Veillonella sp. HM-49, Table 1, read-out: MIC)
1 mg/L: MIC (Lactobacillus gasseri; Lactobacillus gasseri strain HM-644, Table 7) | MIC (Lactobacillus gasseri; Lactobacillus gasseri, Lactobacillus gasser strain HM-644, Table 1, read-out: MIC)
1 µg/mL: MIC (C. difficile; ATCC43598, C. difficile ATCC43598, Table 7) | MIC (C. difficile; ATCC43598, C. difficile ATCC43598, Table 9) | MIC (C. difficile; BAA1804, C. difficile BAA-1804, Table 7) | MIC (C. difficile; BAA1804, C. difficile BAA-1804, Table 9) | MIC (C. difficile; C. difficile 26675 (MR, metronidazole-resistant), Table 7) | MIC (C. difficile; C. difficile 26675, clinical isolate resistant to MTZ, Table 1) | MIC (C. difficile; C. difficile 26675, Table 9) | MIC (C. difficile; C. difficile 27081 (FR, fidaxomicin-resistant), Table 7) | MIC (C. difficile; C. difficile 27081, Table 9) | MIC (C. difficile; C. difficile NR-13427, Table 9) | MIC (C. difficile; C. difficile NR-13433, Table 9) | MIC (C. difficile; C. difficile NR-32885, Table 9) | MIC (C. difficile; C. difficile NR-32891, Table 9) | MIC (C. difficile; C. difficile NR-32900, Table 9) | MIC (C. difficile; C. difficile NR-49280, Table 9) | MIC (C. difficile; C. difficile NR-49291, Table 9) | MIC (C. difficile; C. difficile NR-49298, Table 9) | MIC (C. difficile; C. difficile NR-49306, Table 9) | MIC (C. difficile; C. difficile NR-49307, Table 9) | MIC (C. difficile; C. difficile NR-49309, Table 9) | MIC (C. difficile; C. difficile NR-49320, Table 9) | MIC (S. aureus ATCC29213)
8 µg/mL: MIC (C. difficile; C. difficile 24923 (VR, vancomycin-resistant), Table 7) | MIC (C. difficile; C. difficile 24923, Table 9)
>32 mg/L: MIC (Lactobacillus reuteri; Lactobacillus reuteri strain HM-102, Table 7)
4 µg/mL: MIC (C. difficile; C. difficile 23691 (VR, vancomycin-resistant), Table 7) | MIC (C. difficile; C. difficile 23691, clinical isolate resistant to VAN, Table 1) | MIC (C. difficile; C. difficile 23691, Table 9) | MIC (C. difficile; C. difficile 24531 (VR, vancomycin-resistant), Table 7) | MIC (C. difficile; C. difficile 24531, Table 9)
